According to ChEMBL document CHEMBL1201862, “PubChem BioAssay data set” (2004):
The source made the active and inactive calls.

Legend:
[1] = system: Vero; assay: Vero cell cytotoxicity, cytotoxicity control for flavivirus capping enzyme inhibitors (AID 588742); format: functional; conditions: Chlorocebus sabaeus
[2] = biological target: T1, High affinity choline transporter 1 (Homo sapiens, UniProt Q9GZV3); assay: CHT inhibitors, dose response, cell-based, 5-point CRC, membrane potential dye (AID 504840); format: functional
T1 sequence (Q9GZV3 whole entry): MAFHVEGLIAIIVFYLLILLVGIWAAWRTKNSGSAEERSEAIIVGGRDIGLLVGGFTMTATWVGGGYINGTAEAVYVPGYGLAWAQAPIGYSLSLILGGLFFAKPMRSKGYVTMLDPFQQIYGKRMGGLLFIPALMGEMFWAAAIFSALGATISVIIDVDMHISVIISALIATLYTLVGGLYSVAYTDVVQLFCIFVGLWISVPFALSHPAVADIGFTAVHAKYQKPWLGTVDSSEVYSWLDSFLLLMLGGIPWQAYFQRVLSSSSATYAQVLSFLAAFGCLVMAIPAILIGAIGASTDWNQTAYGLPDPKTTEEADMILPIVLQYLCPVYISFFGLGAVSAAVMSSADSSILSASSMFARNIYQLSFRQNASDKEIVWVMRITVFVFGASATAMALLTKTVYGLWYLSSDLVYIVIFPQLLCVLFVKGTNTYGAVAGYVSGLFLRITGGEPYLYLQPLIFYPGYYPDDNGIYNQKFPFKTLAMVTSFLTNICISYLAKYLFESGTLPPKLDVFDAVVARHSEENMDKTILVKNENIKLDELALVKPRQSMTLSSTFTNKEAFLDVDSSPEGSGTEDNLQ

[3] = Luminescence Cell-Based Dose Retest to Confirm Inhibitors of Cancer Stem Cells. [Related pubchem assays (depositor defined):AID2717, AID2721]; format: functional; conditions: Homo sapiens
[4] = biological target: T2, G-protein coupled receptor 55 (Homo sapiens, UniProt Q9Y2T6); assay: GPR55 antagonists blocking LPI-driven arrestin recruitment, primary screen, imaging, U2OS, beta-arrestin-GFP, LPI agonist (AID 2013); format: functional;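 note: antagonist potency measured as reduced agonist-driven arrestin aggregation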
[5] = biological target: FAD-linked sulfhydryl oxidase ALR (Homo sapiens, UniProt P55789); assay: inhibitors of human ALR sulfhydryl oxidase, dose response, biochemical, H2O2 detection, luminescence, cherry-pick (AID 493248)
[6] = biological target: Induced myeloid leukemia cell differentiation protein Mcl-1 (Homo sapiens, UniProt Q07820); format: functional
[7] = biological target: Large T antigen (Simian virus 40, UniProt P03070); format: functional, Betapolyomavirus macacae;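 note: Confirmatory-stage PubChem screen for compounds that inhibit SV40 T antigen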
[8] = biological target: Genome polyprotein (dengue virus type 2, UniProt P29990); assay: Dengue-2 NS5 methyltransferase inhibitors, primary screen, biochemical, confirmation dose response (AID 588689); format: functional
[9] = biological target: T3, Type-1 angiotensin II receptor (Homo sapiens, UniProt P30556); assay: AT1 receptor agonists, dose response, selectivity assay for APJ receptor agonist project, cell-based, uHTS hits (AID 488865); format: functional;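 note: beta-arrestin recruitment to AT1 measured by enzyme fragment complementation luminescence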
T3 sequence (P30556 whole entry): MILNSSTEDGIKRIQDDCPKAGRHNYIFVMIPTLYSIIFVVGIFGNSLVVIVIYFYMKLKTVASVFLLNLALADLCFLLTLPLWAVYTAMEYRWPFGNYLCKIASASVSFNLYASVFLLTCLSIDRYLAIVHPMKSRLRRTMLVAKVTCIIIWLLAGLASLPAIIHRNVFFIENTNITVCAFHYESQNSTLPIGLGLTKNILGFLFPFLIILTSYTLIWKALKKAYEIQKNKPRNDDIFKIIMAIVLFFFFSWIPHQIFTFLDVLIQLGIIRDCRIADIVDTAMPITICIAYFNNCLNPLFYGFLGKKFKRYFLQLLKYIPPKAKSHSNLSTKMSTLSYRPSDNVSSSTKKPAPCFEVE

[10] = biological target: T4, Calpain-2 catalytic subunit (Sus scrofa, UniProt P43367); assay: pig calpain II inhibitor potency, dose response, biochemical, fluorogenic peptide substrate (AID 1420); format: functional
T4 sequence (P43367 whole entry): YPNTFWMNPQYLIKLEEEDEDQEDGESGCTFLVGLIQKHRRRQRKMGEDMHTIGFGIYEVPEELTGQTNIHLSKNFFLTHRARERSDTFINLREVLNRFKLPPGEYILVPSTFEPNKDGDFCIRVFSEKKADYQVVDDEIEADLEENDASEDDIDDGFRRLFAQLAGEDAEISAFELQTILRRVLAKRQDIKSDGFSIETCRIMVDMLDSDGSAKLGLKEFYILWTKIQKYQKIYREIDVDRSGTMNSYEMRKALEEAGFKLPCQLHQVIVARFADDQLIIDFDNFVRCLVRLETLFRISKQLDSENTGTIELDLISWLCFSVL

[11] = biological target: Eukaryotic translation initiation factor 4E (Mus musculus, UniProt P63073); assay: eIF4E–eIF4G protein interaction inhibitors, dose response, biochemical, TR-FRET (AID 855); format: functional;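 note: potency for disrupting eIF4E binding to eIF4GI seen as loss of FRET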
[12] = system: Escherichia coli; assay: microbe, parasite or virus in culture
[13] = A cytotoxicity screen of small molecule inhibitors of the PhoP region in Salmonella typhi identified in the primary screen. [Related pubchem assays: 1850, 1864, 1985 ]; format: functional
[14] = cytotoxicity in HEK-293T cells, dose response, cytotoxicity control for BCR NF-kB inhibitor project, luminescence, B-cell screen hits (AID 489021); format: functional, cell-based;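 note: HEK-293T cells carrying an NF-kB luciferase reporter; cells exposed to compound for about 14 hours before viability readout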
[15] = inhibitors of intracellular T. cruzi replication, confirmation, NIH3T3 host cells, beta-gal luminescence (AID 2044); format: functional, cell-based;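 note: intracellular parasites grown in NIH/3T3 mouse fibroblasts as host cells; luminescent beta-galactosidase reporter signal from transgenic T. cruzi replicating inside host cells; inhibitors lower the luminescence signal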
[16] = cytotoxicity toward NIH3T3 fibroblasts, dose response, counter-screen, cell-based, ATP luminescence, mouse fibroblasts (AID 2010); format: functional;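 note: cells exposed to compound for about 90 hours before reading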
[17] = system: INS1; assay: beta cell apoptosis inhibitors, cytokine rescue, dose response, luminescence, retest (AID 449756); format: functional, cell-based; conditions: Rattus norvegicus;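 note: cell death triggered by IL-1 beta plus TNF-alpha plus IFN-gamma mixture; protective hits raise ATP signal compared with cytokine alone wells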
[18] = biological target: Photoreceptor-specific nuclear receptor (Homo sapiens, UniProt Q9Y5X4); format: functional;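 note: potency for compounds that break the NR2E3 corepressor complex and count as activators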
[19] = biological target: Peroxisome proliferator-activated receptor gamma/Nuclear receptor corepressor 2 (Homo sapiens, UniProt P37231+Q9Y618); format: functional
[20] = biological target: Lysosomal acid glucosylceramidase (Homo sapiens, UniProt P04062); assay: Dose response cell-based high throughput screening assay to identify enhancers of beta-glucosidase activity. [Related pubchem assays: 784 ]; format: functional
[21] = biological target: T5, SUMO-activating enzyme (Homo sapiens, UniProt Q9UBT2); assay: SUMOylation inhibitor hit validation, confirmation, SUMOylation inhibitor project, biochemical, AlphaScreen (AID 2018); format: functional
[22] = biological target: T5, SUMO-activating enzyme; assay: inhibitors of in vitro SUMOylation cascade, primary screen, biochemical, HTRF, uHTS (AID 2006); format: protein-complex assay
[23] = biological target: T6, Long-chain-fatty-acid--AMP ligase FadD28 (Mycobacterium tuberculosis, UniProt P9WQ59); assay: Fluorescence polarization aasay to screen for inhibitors that compete for the binding of FadD28 to a bisubstrate Measured in Biochemical System Using Plate Reader - 2147-01_Inhibitor_Dose_CherryPick_Activity.; format: functional, Mycobacterium tuberculosis H37Rv
T6 sequence (P9WQ59 whole entry): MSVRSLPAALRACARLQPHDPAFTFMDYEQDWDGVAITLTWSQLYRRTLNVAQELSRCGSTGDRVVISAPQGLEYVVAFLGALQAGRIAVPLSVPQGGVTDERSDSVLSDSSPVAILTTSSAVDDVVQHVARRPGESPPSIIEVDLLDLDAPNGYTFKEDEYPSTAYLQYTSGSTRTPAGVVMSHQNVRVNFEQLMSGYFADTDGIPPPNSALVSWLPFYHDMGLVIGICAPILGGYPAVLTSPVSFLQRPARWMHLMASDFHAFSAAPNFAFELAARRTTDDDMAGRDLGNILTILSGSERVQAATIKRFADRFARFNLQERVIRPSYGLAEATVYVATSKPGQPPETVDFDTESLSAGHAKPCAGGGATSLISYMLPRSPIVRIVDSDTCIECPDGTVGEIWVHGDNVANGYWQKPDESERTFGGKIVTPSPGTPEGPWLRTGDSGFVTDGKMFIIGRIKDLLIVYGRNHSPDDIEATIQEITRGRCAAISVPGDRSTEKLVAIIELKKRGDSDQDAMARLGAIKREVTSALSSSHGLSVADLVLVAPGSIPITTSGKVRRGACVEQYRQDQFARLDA

[24] = biological target: T7, Neuropeptide Y receptor type 2 (Homo sapiens, UniProt P49146); assay: Fluorescence-based cell-based high-throughput dose response assay for agonists of NPY-Y2. [Related pubchem assays: 1703 (Screening assay (CNGC inhibitors).), 1359 (Screening assay (NPY-Y2 potentiators or agonists).), 1304 (Screening assay (NPY-Y1 potentiators or agonists).), 1710 (Screening assay (NPY-Y2 agonists).), 1791 (Summary AID.)]; format: functional
T7 sequence (P49146 whole entry): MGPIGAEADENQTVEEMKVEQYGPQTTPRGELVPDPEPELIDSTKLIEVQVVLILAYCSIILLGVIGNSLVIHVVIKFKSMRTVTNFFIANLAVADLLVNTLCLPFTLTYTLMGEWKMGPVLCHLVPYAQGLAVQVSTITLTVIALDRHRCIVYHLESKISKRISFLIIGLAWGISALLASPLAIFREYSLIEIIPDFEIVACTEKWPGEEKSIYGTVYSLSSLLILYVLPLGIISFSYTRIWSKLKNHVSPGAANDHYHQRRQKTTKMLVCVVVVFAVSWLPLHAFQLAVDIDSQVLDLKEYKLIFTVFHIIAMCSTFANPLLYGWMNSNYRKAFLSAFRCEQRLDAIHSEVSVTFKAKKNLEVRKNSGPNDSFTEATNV

[25] = system: HEK293; assay: Fluorescence-based counterscreen for potentiators or agonists of NPY-Y2: cell-based high-throughput dose response assay to identify inhibitors of cyclic nucleotide gated ion channel (CNGC) activity. In this assay, the parental HEK293 cell line transfected with a cyclic-nucleotide gated ion channel (CNGC)-based cAMP sensor is used to measure inhibition of isoproterenol-induced CNGC activity by test compound.; format: functional; conditions: Homo sapiens;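 note: stimulus is 1 µM isoproterenol at EC100 plus PDE inhibitor Ro 20-1724 at 25 µM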
[26] = biological target: T8, Neuropeptide Y receptor type 1 (Homo sapiens, UniProt P25929); assay: Fluorescence-based counterscreen for agonists of NPY-Y2: cell-based high-throughput dose response assay for agonists of NPY-Y1.; format: functional
T8 sequence (P25929 whole entry): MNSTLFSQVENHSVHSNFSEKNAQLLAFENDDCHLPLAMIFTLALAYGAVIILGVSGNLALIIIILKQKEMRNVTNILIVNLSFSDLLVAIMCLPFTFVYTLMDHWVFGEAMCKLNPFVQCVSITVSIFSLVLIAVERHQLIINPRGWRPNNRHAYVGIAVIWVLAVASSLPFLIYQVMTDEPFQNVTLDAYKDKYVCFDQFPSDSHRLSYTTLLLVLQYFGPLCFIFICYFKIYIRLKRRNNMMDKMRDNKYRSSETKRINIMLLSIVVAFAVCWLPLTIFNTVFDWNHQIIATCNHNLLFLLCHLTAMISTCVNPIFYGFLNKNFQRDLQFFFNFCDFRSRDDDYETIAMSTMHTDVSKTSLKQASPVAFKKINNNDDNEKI

[27] = biological target: Acyl-homoserine lactone acylase PvdQ (Pseudomonas aeruginosa (strain LESB58), UniProt Q9I194); assay: P. aeruginosa PvdQ acylase inhibitors, dose response, biochemical, fluorescence, plate reader and imaging, cherry-picks (AID 493231)
[28] = biological target: T2, G-protein coupled receptor 55; assay: GPR55 agonists via beta-arrestin recruitment, primary screen, imaging, U2OS cells, beta-arrestin-GFP redistribution (AID 1961); format: functional

T2 sequence (Q9Y2T6 whole entry): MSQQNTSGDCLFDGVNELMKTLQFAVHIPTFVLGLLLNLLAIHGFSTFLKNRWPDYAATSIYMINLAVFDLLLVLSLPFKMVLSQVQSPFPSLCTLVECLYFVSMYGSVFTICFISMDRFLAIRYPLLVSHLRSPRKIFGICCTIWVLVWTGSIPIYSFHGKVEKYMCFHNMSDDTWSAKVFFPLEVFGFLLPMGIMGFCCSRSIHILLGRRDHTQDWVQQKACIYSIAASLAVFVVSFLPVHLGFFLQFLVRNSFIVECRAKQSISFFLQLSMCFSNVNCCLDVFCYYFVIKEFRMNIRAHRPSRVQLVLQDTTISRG
T5 sequence (Q9UBE0 whole entry): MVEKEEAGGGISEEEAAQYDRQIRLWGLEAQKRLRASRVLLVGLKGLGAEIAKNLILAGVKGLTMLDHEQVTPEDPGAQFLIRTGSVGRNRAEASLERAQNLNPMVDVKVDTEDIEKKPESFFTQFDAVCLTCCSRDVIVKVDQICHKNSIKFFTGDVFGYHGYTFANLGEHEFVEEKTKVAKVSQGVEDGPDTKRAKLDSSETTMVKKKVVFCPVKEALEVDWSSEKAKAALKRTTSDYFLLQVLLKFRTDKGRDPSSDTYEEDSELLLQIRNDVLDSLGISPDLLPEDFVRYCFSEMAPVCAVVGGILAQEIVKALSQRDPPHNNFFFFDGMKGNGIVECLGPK
T5 sequence (Q9UBT2 whole entry): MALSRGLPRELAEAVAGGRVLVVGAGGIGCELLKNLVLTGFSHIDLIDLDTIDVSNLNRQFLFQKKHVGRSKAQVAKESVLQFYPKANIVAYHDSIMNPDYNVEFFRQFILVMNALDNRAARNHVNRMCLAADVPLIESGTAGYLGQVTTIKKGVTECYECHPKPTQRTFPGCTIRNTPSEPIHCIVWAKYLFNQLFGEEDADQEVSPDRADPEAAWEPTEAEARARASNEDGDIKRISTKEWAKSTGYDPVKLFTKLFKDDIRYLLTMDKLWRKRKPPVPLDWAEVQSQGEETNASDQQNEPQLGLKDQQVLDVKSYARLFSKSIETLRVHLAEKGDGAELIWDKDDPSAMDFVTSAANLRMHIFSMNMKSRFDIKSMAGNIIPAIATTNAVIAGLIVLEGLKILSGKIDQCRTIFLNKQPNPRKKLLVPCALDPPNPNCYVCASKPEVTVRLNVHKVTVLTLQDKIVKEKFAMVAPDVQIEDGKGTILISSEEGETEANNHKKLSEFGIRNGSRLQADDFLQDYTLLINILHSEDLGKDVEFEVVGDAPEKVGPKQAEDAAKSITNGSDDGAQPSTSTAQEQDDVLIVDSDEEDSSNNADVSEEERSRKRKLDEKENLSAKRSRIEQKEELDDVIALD
Eukaryotic translation initiation factor 4E, sequence (P63073 whole entry): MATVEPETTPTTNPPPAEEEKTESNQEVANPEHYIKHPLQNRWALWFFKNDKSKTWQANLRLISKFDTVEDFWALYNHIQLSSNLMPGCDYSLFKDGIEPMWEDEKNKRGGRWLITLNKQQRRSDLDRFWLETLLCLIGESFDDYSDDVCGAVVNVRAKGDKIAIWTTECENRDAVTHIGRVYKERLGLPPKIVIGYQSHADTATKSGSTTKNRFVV
Lysosomal acid glucosylceramidase, sequence (P04062 whole entry): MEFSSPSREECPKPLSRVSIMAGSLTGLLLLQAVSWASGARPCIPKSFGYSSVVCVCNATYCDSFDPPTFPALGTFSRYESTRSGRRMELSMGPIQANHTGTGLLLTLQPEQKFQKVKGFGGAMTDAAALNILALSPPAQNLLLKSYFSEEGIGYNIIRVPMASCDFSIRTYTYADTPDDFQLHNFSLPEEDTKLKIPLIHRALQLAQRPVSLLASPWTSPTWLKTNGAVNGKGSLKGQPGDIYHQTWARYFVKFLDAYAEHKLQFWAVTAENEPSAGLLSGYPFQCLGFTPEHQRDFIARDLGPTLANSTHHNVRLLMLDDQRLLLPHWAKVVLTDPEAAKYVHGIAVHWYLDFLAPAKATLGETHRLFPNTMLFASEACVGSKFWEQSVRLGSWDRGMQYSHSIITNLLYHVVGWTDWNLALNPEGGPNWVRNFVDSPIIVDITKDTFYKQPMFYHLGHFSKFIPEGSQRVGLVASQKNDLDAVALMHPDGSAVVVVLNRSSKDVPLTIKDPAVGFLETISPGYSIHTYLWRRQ
Photoreceptor-specific nuclear receptor, sequence (Q9Y5X4 whole entry): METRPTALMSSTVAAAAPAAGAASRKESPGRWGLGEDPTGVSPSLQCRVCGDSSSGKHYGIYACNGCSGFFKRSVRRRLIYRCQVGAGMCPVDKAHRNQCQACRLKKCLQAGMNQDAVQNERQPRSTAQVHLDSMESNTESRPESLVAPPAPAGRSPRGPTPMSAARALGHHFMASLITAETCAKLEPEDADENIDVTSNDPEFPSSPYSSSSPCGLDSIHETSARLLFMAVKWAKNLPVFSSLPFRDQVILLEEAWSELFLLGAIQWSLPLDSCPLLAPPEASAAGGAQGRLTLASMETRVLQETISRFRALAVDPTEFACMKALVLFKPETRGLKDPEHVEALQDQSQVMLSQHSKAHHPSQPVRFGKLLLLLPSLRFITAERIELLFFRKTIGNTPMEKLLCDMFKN
Acyl-homoserine lactone acylase PvdQ, sequence (Q9I194 24-193 limits assumed): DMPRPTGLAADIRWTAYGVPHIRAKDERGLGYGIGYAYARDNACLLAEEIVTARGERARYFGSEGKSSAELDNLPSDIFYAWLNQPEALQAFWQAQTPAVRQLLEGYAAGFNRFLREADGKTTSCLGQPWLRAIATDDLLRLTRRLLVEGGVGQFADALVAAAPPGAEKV
Acyl-homoserine lactone acylase PvdQ, sequence (Q9I194 217-762 limits assumed): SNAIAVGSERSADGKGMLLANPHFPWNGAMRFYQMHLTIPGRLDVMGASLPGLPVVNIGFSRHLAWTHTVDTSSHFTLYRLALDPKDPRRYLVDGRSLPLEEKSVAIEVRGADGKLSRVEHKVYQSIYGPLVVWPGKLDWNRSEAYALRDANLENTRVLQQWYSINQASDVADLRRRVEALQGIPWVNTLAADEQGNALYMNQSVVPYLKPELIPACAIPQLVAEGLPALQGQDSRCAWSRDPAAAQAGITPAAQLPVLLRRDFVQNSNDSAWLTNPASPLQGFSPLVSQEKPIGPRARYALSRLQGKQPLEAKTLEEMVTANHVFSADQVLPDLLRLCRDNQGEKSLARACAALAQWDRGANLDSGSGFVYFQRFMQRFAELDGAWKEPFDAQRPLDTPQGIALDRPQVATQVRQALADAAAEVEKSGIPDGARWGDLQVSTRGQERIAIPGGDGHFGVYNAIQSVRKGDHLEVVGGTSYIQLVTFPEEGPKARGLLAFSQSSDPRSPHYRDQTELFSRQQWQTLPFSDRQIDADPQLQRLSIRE
FAD-linked sulfhydryl oxidase ALR, sequence (P55789 whole entry): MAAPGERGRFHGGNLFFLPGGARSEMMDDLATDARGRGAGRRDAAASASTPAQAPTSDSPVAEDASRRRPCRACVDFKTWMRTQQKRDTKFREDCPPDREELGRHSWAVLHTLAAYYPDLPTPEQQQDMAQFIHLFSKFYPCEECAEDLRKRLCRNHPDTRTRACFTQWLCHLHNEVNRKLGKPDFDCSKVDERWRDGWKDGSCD
Genome polyprotein, sequence (P29990 2492-3391 limits assumed): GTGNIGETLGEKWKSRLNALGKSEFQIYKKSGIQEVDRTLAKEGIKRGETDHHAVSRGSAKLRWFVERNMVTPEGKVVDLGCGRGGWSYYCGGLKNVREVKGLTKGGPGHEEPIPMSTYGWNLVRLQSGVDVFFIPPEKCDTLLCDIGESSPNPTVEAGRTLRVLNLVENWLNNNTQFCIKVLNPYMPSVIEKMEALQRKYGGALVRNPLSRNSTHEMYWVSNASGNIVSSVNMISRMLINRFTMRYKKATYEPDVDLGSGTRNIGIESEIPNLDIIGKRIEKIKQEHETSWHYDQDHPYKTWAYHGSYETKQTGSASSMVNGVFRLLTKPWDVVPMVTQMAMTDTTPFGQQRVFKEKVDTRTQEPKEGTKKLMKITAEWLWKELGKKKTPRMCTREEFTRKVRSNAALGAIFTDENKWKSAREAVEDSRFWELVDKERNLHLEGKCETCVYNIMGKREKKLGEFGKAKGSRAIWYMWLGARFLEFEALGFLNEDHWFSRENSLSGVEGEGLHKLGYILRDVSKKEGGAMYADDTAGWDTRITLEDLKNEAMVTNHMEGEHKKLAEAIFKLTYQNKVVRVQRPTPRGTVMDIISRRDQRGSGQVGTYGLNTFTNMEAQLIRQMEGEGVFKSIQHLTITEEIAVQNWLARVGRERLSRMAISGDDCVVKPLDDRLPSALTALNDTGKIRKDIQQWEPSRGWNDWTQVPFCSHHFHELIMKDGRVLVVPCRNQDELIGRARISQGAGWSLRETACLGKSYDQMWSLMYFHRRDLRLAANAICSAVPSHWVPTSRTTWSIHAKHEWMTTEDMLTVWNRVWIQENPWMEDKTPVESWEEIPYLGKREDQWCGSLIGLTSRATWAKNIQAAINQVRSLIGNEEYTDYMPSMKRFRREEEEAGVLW
Induced myeloid leukemia cell differentiation protein Mcl-1, sequence (Q07820 whole entry): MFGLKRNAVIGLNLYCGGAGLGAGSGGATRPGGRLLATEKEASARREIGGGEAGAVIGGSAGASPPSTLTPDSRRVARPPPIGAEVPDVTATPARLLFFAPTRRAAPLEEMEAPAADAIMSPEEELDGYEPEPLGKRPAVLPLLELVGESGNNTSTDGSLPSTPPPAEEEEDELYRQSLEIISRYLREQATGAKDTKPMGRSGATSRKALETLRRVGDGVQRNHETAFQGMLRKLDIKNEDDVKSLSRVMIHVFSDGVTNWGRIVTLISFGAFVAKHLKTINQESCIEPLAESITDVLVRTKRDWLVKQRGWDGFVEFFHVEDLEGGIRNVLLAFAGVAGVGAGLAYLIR

Cc1ccc(N2NC(=O)/C(=C\c3cc4c(cc3[N+](=O)[O-])OCO4)C2=O)cc1C
CC50 [1]: > 40 µM (active)
IC50 [2]: 3.98 µM (active)
AC50 [3]: 3.65 µM (active)
IC50 [4]: 3.3 µM (active)
AC50 [5]: 0.321 µM (active)
IC50 [6]: 4.66 µM (active)
IC50 [7]: 23 µM (active)
IC50 [8]: 27 µM (active)

CN(C)CCCN(C(=O)c1ccc(S(=O)(=O)N2CCc3ccccc3C2)cc1)c1nc2c(F)cccc2s1
EC50 [9]: > 100 µM (inactive)

O=C(Nc1cccc(-c2nc3cccnc3s2)c1)C1c2ccccc2Oc2ccccc21
IC50 [10]: 7.46 µM (active)
IC50 [11]: > 64 µM (inactive)
AC50 [12]: 50.5 µM (active)

COc1nccnc1NS(=O)(=O)c1ccc(NC(=S)NC(=O)c2cccnc2)cc1
EC50 [13]: > 50 µM (active)

CC(=O)C1=NN(c2ccccc2)C(c2cccs2)N1c1ccc(N(C)C)cc1 (stereo unspecified)
IC50 [14]: > 80 µM (inactive)
EC50 [15]: 0.776 µM (active)
EC50 [16]: > 60 µM (inconclusive)
AC50 [17]: 3.1 µM (active)

Cc1ccc(C(=O)C2=C(O)C(=O)N(Cc3cccnc3)C2c2ccc(Br)cc2)o1 (stereo unspecified)
IC50 [18]: > 39.8 µM (not active)
IC50 [19]: 9.36 µM (active)

Cc1ccc(C(C(=O)NC2CCCCC2)N2CCCC2)cc1 (stereo unspecified)
EC50 [20]: > 50 µM (not active)

C#CCN(CC=C)C(=O)c1ccc2nc(C3CCCCC3)oc2c1
IC50 [4]: 4.55 µM (active)

O=C(C1=C(O)C(=O)N(CCN2CCOCC2)C1c1ccc(Cl)cc1)c1cc2ccccc2o1 (stereo unspecified)
IC50 [18]: > 39.8 µM (not active)
IC50 [19]: 9.92 µM (active)

Cc1ccc(NC(=O)CN2C(=O)S/C(=C\c3ccc(-c4cccc(C(=O)O)c4C)o3)C2=O)cc1C
IC50 [21]: 6.11 µM (active)
IC50 [11]: 27.9 µM (active)
IC50 [22]: 6.48 µM (active)
AC50 [23]: 52.8 µM (active)

N#Cc1c(Cl)nsc1NN
EC50 [24]: 9.25 µM (active)
EC50 [25]: 9.97 µM (active)
EC50 [26]: 7.05 µM (active)

CCOC(=O)/C(C#N)=C/c1ccc(SC)cc1
AC50 [27]: 18.1 µM (active)

O=C(C1CCC1)N1CCN(c2ccc(Cl)cc2)CC1
AC50 [27]: 13.5 µM (active)

Cc1cc(C)c2nc(NC(=O)C3CSC4(C)CCC(=O)N34)sc2c1 (stereo unspecified)
IC50 [14]: > 80 µM (inactive)

Cc1cc(C)c(/C=N/NC(=O)c2nnn(-c3nonc3N)c2CN2CCC(C)CC2)c(C)c1
EC50 [28]: 8.18 µM (active)

O=C(N/N=C/c1cccs1)c1ccc2[nH]cnc2c1
EC50 [13]: > 50 µM (active)

CCOc1ccc(-c2noc(-c3ccncc3)n2)cc1OCC
EC50 [20]: > 10 µM (not active)
